The source of these data is paper PMC5896373 (Molecular Pharmacology, 2018).

Positions count from the first letter of the chain named.

The target in assay [1] is T1, chimeric P2X7/1 receptor 81–88 (Homo sapiens, UniProt Q99572, F88W/H85P/I21V/K81P/K82G/M24R/N16P/N25R/Q22R/R20V/S23N/S86Q/T19I/V84G/Y26L).
T1 construct: expressed in transfected cells; host or cells: Xenopus laevis oocytes (cRNA injection)
T1 sequence (Q99572 1-595 N16P/T19I/R20V/I21V/Q22R/S23N/M24R/N25R/Y26L/K81P/K82G/V84G/H85P/S86Q/F88W): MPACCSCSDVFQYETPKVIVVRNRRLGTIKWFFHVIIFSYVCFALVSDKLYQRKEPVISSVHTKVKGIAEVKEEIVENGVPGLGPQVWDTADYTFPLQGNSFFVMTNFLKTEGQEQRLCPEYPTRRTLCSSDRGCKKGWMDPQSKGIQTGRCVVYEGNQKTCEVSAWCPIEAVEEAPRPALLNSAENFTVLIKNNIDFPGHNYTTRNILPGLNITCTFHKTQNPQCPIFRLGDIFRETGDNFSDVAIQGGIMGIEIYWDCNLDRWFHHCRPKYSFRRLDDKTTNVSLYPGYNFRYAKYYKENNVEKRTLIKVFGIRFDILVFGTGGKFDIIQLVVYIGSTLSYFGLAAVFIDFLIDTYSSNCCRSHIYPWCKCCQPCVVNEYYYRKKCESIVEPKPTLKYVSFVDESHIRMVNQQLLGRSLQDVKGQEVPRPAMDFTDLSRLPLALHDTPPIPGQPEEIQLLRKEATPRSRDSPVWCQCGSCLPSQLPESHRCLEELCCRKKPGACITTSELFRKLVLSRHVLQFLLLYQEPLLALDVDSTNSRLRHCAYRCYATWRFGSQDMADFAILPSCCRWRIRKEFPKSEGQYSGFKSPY
Put plainly: Two-electrode voltage clamp of ATP-evoked currents in Xenopus oocytes. The assay is classed as cell-based.
Description: (§1) Additional point mutants were made using the QuikChange mutagenesis kit (Stratagene California, La Jolla, CA). The production of the correct mutations and absence of coding errors was determined by DNA sequencing (Automated ABI Sequencing Service, University of Leicester, UK). cRNA was generated for the mutants and 50 nl (50 ng) was injected into manually defoliculated stage V Xenopus laevis oocytes using an Inject+Matic microinjector (J.A. Gabay, Inject+Matic, Geneva, Switzerland). Injected oocytes were stored at 16°C in ND96 buffer [in millimolar concentrations, NaCl 96, KCl 2, CaCl2 1.8, MgCl2 1, sodium pyruvate 5, and HEPES 5 (pH 7.6) supplemented with 50 μg/ml gentamycin and 50 μg/ml tetracycline]. Three to seven days postinjection two-electrode voltage clamp recordings were made from oocytes bathed in divalent-free ND96 buffer (in millimolar concentrations, NaCl 96, KCl 2, sodium pyruvate 5, HEPES 5, and 0.1 flufenamic acid, pH 7.6). Oocytes were voltage clamped at a holding potential of −60 mV with a GeneClamp500B amplifier (Molecular Devices).
(§2) Inhibition by the antagonists was expressed as the percentage of the peak current amplitude of an EC90 concentration of ATP recorded before the application of antagonist (ATP gave reproducible responses to ATP in the absence of antagonist). Inhibition curves were fitted with the Hill equation (variable slope) using GraphPad Prism 6 (GraphPad Software, San Diego, CA). […] Individual concentration-response curves were generated for individual experiments, and statistical analysis was carried out on the data generated. […] Data are shown as mean ± S.E.M. In all cases n ≥ 3 for all data points.

The target in assay [2] is T2, chimeric P2X7/1 receptor 164–168 (Homo sapiens, UniProt Q99572, A166G/I21V/M24R/N16P/N25R/Q22R/R20V/S165F/S23N/T19I/V164I/Y26L).
T2 construct: expressed in transfected cells; host or cells: Xenopus laevis oocytes (cRNA injection)
T2 sequence (Q99572 1-595 N16P/T19I/R20V/I21V/Q22R/S23N/M24R/N25R/Y26L/V164I/S165F/A166G): T1 sequence (Q99572 1-595 N16P/T19I/R20V/I21V/Q22R/S23N/M24R/N25R/Y26L/K81P/K82G/V84G/H85P/S86Q/F88W) with P81K, G82K, G84V, P85H, Q86S, W88F, V164I, S165F, A166G
The assay is described as above. Type of assay: cell-based. Particulars: chimera 164–168; for IC50: inhibition of EC90 ATP response.
Description: as §1
(§3) Inhibition by the antagonists was expressed as the percentage of the peak current amplitude of an EC90 concentration of ATP recorded before the application of antagonist (ATP gave reproducible responses to ATP in the absence of antagonist). Inhibition curves were fitted with the Hill equation (variable slope) using GraphPad Prism 6 (GraphPad Software, San Diego, CA). […] Individual concentration-response curves were generated for individual experiments, and statistical analysis was carried out on the data generated. When shown in figures, the inhibition curves are fitted to the mean normalized data. […] Data are shown as mean ± S.E.M. In all cases n ≥ 3 for all data points.

Assay [3] concerns the target T3, chimeric P2X7/1 receptor 279–285 (left flipper) (Homo sapiens, UniProt Q99572, DEL279-281/I21V/M24R/N16P/N25R/N284E/Q22R/R20V/S23N/T19I/T282Y/T283E/V285K/Y26L).
T3 construct: expressed in transfected cells; host or cells: Xenopus laevis oocytes (cRNA injection)
T3 sequence (Q99572 with tags, fused parts or gaps N16P/T19I/R20V/I21V/Q22R/S23N/M24R/N25R/Y26L/DEL279-281/T282Y/T283E/N284E/V285K): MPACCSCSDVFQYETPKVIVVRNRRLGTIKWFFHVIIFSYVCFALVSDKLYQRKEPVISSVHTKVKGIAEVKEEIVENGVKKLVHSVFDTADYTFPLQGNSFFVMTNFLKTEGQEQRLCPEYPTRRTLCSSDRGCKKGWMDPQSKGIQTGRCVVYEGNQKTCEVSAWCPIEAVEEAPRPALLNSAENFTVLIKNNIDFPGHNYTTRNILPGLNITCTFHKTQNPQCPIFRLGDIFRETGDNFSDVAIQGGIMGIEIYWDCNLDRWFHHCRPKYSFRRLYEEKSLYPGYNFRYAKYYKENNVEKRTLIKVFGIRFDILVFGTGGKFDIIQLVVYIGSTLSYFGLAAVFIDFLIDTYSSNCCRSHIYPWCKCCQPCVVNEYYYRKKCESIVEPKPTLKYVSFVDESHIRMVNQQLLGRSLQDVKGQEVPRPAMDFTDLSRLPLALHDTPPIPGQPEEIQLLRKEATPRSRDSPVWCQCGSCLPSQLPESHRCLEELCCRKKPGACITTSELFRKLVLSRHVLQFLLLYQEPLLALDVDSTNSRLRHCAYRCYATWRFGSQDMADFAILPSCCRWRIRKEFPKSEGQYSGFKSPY
The description is as above. The assay is classed as cell-based. The note with it: chimera 279–285; for IC50: inhibition of EC90 ATP response.
Description: The production of the correct mutations and absence of coding errors was determined by DNA sequencing (Automated ABI Sequencing Service, University of Leicester, UK). cRNA was generated for the mutants and 50 nl (50 ng) was injected into manually defoliculated stage V Xenopus laevis oocytes using an Inject+Matic microinjector (J.A. Gabay, Inject+Matic, Geneva, Switzerland). Injected oocytes were stored at 16°C in ND96 buffer [in millimolar concentrations, NaCl 96, KCl 2, CaCl2 1.8, MgCl2 1, sodium pyruvate 5, and HEPES 5 (pH 7.6) supplemented with 50 μg/ml gentamycin and 50 μg/ml tetracycline]. Three to seven days postinjection two-electrode voltage clamp recordings were made from oocytes bathed in divalent-free ND96 buffer (in millimolar concentrations, NaCl 96, KCl 2, sodium pyruvate 5, HEPES 5, and 0.1 flufenamic acid, pH 7.6). Oocytes were voltage clamped at a holding potential of −60 mV with a GeneClamp500B amplifier (Molecular Devices).
as §2

A further assay deals with T4, P2X7R point mutant S86A (Homo sapiens, UniProt Q99572, I21V/M24R/N16P/N25R/Q22R/R20V/S23N/S86A/T19I/Y26L).
T4 construct: expressed in transfected cells; host or cells: Xenopus laevis oocytes (cRNA injection)
Described as above. Type of assay: cell-based. Particulars: EC90 ATP, mean ± S.E.M.

In the next assay the target is T5, P2X7R point mutant A166G (Homo sapiens, UniProt Q99572, A166G/I21V/M24R/N16P/N25R/Q22R/R20V/S23N/T19I/Y26L).
T5 construct: expressed in transfected cells; host or cells: Xenopus laevis oocytes (cRNA injection)
Described as above. The assay is classed as cell-based. Particulars: EC90 ATP, mean ± S.E.M.

A further assay concerns the target T6, P2X7R point mutant K306C (Homo sapiens, UniProt Q99572, I21V/K306C/M24R/N16P/N25R/Q22R/R20V/S23N/T19I/Y26L).
T6 construct: expressed in transfected cells; host or cells: Xenopus laevis oocytes (cRNA injection)
Described as above. Particulars: EC90 ATP, mean ± S.E.M. The assay is classed as cell-based.

The next assay has as its target T7, P2X7R point mutant A91C (Homo sapiens, UniProt Q99572, A91C/I21V/M24R/N16P/N25R/Q22R/R20V/S23N/T19I/Y26L).
T7 construct: expressed in transfected cells; host or cells: Xenopus laevis oocytes (cRNA injection)
Put plainly: cell-based.

T5 sequence (Q99572 whole entry N16P/T19I/R20V/I21V/Q22R/S23N/M24R/N25R/Y26L/A166G): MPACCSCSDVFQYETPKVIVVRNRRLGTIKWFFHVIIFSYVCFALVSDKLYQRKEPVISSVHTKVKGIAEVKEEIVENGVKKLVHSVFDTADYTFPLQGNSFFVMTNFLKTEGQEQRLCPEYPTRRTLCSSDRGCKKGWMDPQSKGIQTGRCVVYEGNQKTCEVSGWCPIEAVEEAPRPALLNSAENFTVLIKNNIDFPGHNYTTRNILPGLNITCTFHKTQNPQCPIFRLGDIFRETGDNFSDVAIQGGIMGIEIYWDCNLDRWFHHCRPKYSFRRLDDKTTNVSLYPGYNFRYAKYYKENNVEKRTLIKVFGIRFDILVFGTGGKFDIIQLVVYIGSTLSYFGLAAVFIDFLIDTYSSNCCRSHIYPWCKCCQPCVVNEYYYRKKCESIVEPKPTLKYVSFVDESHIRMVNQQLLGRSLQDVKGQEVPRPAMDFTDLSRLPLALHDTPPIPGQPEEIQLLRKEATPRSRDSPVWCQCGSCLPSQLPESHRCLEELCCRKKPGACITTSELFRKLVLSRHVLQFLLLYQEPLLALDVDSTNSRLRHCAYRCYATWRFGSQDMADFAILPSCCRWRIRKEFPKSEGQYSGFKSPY
T4 sequence (Q99572 whole entry N16P/T19I/R20V/I21V/Q22R/S23N/M24R/N25R/Y26L/S86A): as the sequence (Q99572 whole entry N16P/T19I/R20V/I21V/Q22R/S23N/M24R/N25R/Y26L/A166G) above, with S86A, G166A counted along it
T7 sequence (Q99572 whole entry N16P/T19I/R20V/I21V/Q22R/S23N/M24R/N25R/Y26L/A91C): as the sequence (Q99572 whole entry N16P/T19I/R20V/I21V/Q22R/S23N/M24R/N25R/Y26L/A166G) above, with A91C, G166A counted along it
T6 sequence (Q99572 whole entry N16P/T19I/R20V/I21V/Q22R/S23N/M24R/N25R/Y26L/K306C): as the sequence (Q99572 whole entry N16P/T19I/R20V/I21V/Q22R/S23N/M24R/N25R/Y26L/A166G) above, with G166A, K306C counted along it
Description for P2X7R point mutant A166G: (§4) Injected oocytes were stored at 16°C in ND96 buffer [in millimolar concentrations, NaCl 96, KCl 2, CaCl2 1.8, MgCl2 1, sodium pyruvate 5, and HEPES 5 (pH 7.6) supplemented with 50 μg/ml gentamycin and 50 μg/ml tetracycline]. Three to seven days postinjection two-electrode voltage clamp recordings were made from oocytes bathed in divalent-free ND96 buffer (in millimolar concentrations, NaCl 96, KCl 2, sodium pyruvate 5, HEPES 5, and 0.1 flufenamic acid, pH 7.6). Oocytes were voltage clamped at a holding potential of −60 mV with a GeneClamp500B amplifier (Molecular Devices).
as §3
Description for P2X7R point mutant A91C: as §4, §2
Description for P2X7R point mutant K306C: as §4, §2
Description for P2X7R point mutant S86A: as §1
Inhibition by the antagonists was expressed as the percentage of the peak current amplitude of an EC90 concentration of ATP recorded before the application of antagonist (ATP gave reproducible responses to ATP in the absence of antagonist). […]

As to `Cl.Clc1cccc(-c2nnnn2Cc2cccnc2)c1Cl.O` [A438079, 3-(5-(2,3-dichlorophenyl)-1H-tetrazol-1-yl)methyl pyridine hydrochloride hydrate], the IC50 was 1 µM in assay [1]; 10 µM in assay [2]; 31.6 µM in assay [3]; 1 µM against P2X7R point mutant S86A; 3.98 µM on P2X7R point mutant A166G; 1.58 µM at P2X7R point mutant K306C. In addition, half-maximal inhibition against P2X7R point mutant A91C (IC50) required 20 µM.
Turning to `COc1ccc(CC(=O)NC(N=C(NC#N)Nc2cccc3ncccc23)C(C)(C)C)cc1OC` (centres unmarked) [A740003, N-[1-[[(cyanoamino)(5-quinolinylamino)methylene]amino]-2,2-dimethylpropyl]-3,4-dimethoxybenzeneacetamide], the half-inhibitory concentration (IC50) was 0.0794 µM in assay [1]; 0.398 µM in assay [2]; 0.631 µM in assay [3]; 0.0794 µM against P2X7R point mutant S86A; 0.316 µM against P2X7R point mutant A166G; 0.316 µM against P2X7R point mutant K306C. Further, half-maximal inhibition against P2X7R point mutant A91C (IC50) required 2.51 µM. Further, in assay [1] (chimera 81–88), the “effect on antagonist potency relative to P2X7-2Nβ” value is reported as “no effect”. Besides, the “fold decrease in antagonist sensitivity relative to P2X7-2Nβ” value in assay [2] was around 5 fold; in assay [3], around 9 fold.
